Patent US20110311601A1, “ANTIMICROBIAL MEDICAL DEVICES” (priority 2010, published 2011)
Where no end group is shown, it is not given here.

Assays:
Assay in all cases: micro-dilution assay (MBC, LD90)
Type in all cases: cell-based
[1] = tested on: Aeeromonas hydrophila ATCC 7966
Protocol: (§1) The anti-bacterial activity of hβD2 was tested by a micro-dilution assay. Bacteria and fungi were streaked from a glycerol stock onto a Brain Heart Infusion (BHI) agar plate (3.7% w/v BHI Bouillon, 1.5% w/v Agar), grown overnight at 37° C. and 30° C., respectively and subsequently used to inoculate 40 ml of 3.7% w/v BHI Bouillon without any antibiotics in 100 ml flasks. Fresh cells were harvested by centrifugation at 16000 rpm for 10 min and washed twice with 10 mM sodium phosphate buffer, pH 7.2. The optical density was adjusted to 10^4 cells/ml. For anti-bacterial testing hβD2 was incubated in one well of a microtiter plate containing 100 μl of the bacterial suspension. Therefore, ten microlitres of hβD2 solution with a range of final concentrations tested from 0.0125 up to and including 100 mg/l was added to the bacterial suspension and incubated at 37° C. and 30° C., respectively for 2 h before colony forming units were determined. Colony forming units (CFU) were determined after plating 100 μl of a 1:100 dilution of the bacterial suspension on petri dishes with BHI medium and incubating them overnight at 37° C. For every group of the hβD2 added samples and the controls, 5 independent anti-bacterial assays were performed. A control (NC) of bacterial growth was examined for every independent assay. The number of CFU on the control (consisting of a single petri dish) was set to 0% bactericidal activity. The reduction in the CFU resulting from the anti-bacterial activity of hβD2 was related to the absolute CFU of the control within every independent assay. This value, given as a percentage of the bacterial “killing” activity, was used to describe the antibacterial activity. This kind of normalisation of the antibacterial data was performed for every experimental group.
(§2) The antibacterial activity of hβD2 were given either as minimum bactericidal concentration (MBC), i.e., the minimum concentration of hβD2 in μg/ml which is required to kill 99.9% of the bacteria or fungi or as lethal dose (LD90), i.e., the concentration of hβD2 in μg/ml which is lethal for 90% of bacteria or fungi.

[2] = tested on: Brevundimonas diminuta ATCC 11568
Protocol: as §1, §2

[3] = tested on: Campylobacter jejuni ATCC 33560
Protocol: as §1, §2

[4] = tested on: Candida albicans ATCC 24433
Protocol: as §1, §2

[5] = tested on: Candida albicans C.a 39 (wild-type)
Protocol: as §1, §2

[6] = tested on: Candida tropicalis ATCC 750
Protocol: as §1, §2

[7] = tested on: Citrobacter freundii BK 2122/00 (wild-type)
Protocol: as §1, §2

[8] = tested on: Corynebacterium pseudodiphtheriae RV A1/95
Protocol: as §1, §2

[9] = tested on: E. coli (ESBI 4) Va 10866/02 (wild-type)
Protocol: as §1, §2

[10] = tested on: E. coli (ESBL 1) UR 2884/99 (wild-type)
Protocol: as §1, §2

[11] = tested on: E. coli (ESBL 9) UR 2217/03 (wild-type)
Protocol: as §1, §2

[12] = tested on: Enterobacter aerogenes Va 12738/03 (wild-type)
Protocol: as §1, §2

[13] = tested on: Enterobacter cloacae ATCC 13047
Protocol: as §1, §2

[14] = tested on: Enterobacter cloacae Va 12270/03 (wild-type)
Protocol: as §1, §2

[15] = tested on: Enterococcus faecium (VRE) W 356 (wild-type)
Protocol: as §1, §2

[16] = tested on: Klebsiella pneumoniae ATCC 13883
Protocol: as §1, §2

[17] = tested on: Proteus mirabilis ATCC 9240
Protocol: as §1, §2

[18] = tested on: Proteus vulgaris UR 1464/03 (wild-type)
Protocol: as §1, §2

[19] = tested on: Pseudomonas aeruginosa ATCC 11446
Protocol: as §1, §2

[20] = tested on: Pseudomonas aeruginosa ATCC 39324
Protocol: as §1, §2

[21] = tested on: Pseudomonas aeruginosa CF 645 (mukoid)(wild-type)
Protocol: as §1, §2

[22] = tested on: Saccharomyces cerevisiae ATCC 9763
Protocol: as §1, §2

[23] = tested on: Serratia marcescens Mero 041/145 (wild-type)
Protocol: as §1, §2

[24] = tested on: Serratia marcescens NCTC 10211
Protocol: as §1, §2

[25] = tested on: Stenotrophomonas maltophilia ATCC 10257
Protocol: as §1, §2

[26] = tested on: Stenotrophomonas maltophilia ATCC 17666
Protocol: as §1, §2

human β-defensin-2 (GIGDPVTCLKSGAICHPVFCPRRYKQIGTCGLPGTKCCKKP; ends and bridges not checked; cysteine pairing not given here) [hβD2, recombinant hβD2]
50 µg/mL: MBC = μg/ml 99.9% killing [5] | LD 90 = μg/ml 90% killing [15] | LD 90 = μg/ml 90% killing [24] | MBC = μg/ml 99.9% killing [26]
>100 µg/mL: MBC = μg/ml 99.9% killing [1] | MBC = μg/ml 99.9% killing [17]
6.25 µg/mL: LD 90 = μg/ml 90% killing [2] | MBC = μg/ml 99.9% killing [3] | LD 90 = μg/ml 90% killing [7] | LD 90 = μg/ml 90% killing [12] | LD 90 = μg/ml 90% killing [14] | LD 90 = μg/ml 90% killing [25] | LD 90 = μg/ml 90% killing [26]
100 µg/mL: LD 90 = μg/ml 90% killing [1] | MBC = μg/ml 99.9% killing [13] | MBC = μg/ml 99.9% killing [15] | LD 90 = μg/ml 90% killing [17] | MBC = μg/ml 99.9% killing [23] | MBC = μg/ml 99.9% killing [24]
1.56 µg/mL: LD 90 = μg/ml 90% killing [6]
25 µg/mL: MBC = μg/ml 99.9% killing [4] | MBC = μg/ml 99.9% killing [6] | MBC = μg/ml 99.9% killing [7] | MBC = μg/ml 99.9% killing [11] | MBC = μg/ml 99.9% killing [12] | LD 90 = μg/ml 90% killing [13] | MBC = μg/ml 99.9% killing [16] | MBC = μg/ml 99.9% killing [20] | LD 90 = μg/ml 90% killing [21] | MBC = μg/ml 99.9% killing [22] | LD 90 = μg/ml 90% killing [23] | MBC = μg/ml 99.9% killing [25]
12.5 µg/mL: MBC = μg/ml 99.9% killing [2] | LD 90 = μg/ml 90% killing [5] | LD 90 = μg/ml 90% killing [8] | MBC = μg/ml 99.9% killing [8] | MBC = μg/ml 99.9% killing [9] | MBC = μg/ml 99.9% killing [10] | LD 90 = μg/ml 90% killing [11] | MBC = μg/ml 99.9% killing [14] | LD 90 = μg/ml 90% killing [16] | MBC = μg/ml 99.9% killing [18] | LD 90 = μg/ml 90% killing [19] | MBC = μg/ml 99.9% killing [19] | LD 90 = μg/ml 90% killing [20] | MBC = μg/ml 99.9% killing [21]
3.125 µg/mL: LD 90 = μg/ml 90% killing [3] | LD 90 = μg/ml 90% killing [4] | LD 90 = μg/ml 90% killing [9] | LD 90 = μg/ml 90% killing [10] | LD 90 = μg/ml 90% killing [18] | LD 90 = μg/ml 90% killing [22]
